Reference: patent US20060188938A1, “Compounds for inhibiting beta-amyloid production and methods of identifying the compounds” (priority 2005, published 2006)

tested on: not given; assay: not given; conditions: not given

First: CC1=C(C(=O)OC(C)(C)C)C(c2ccc(Cl)cc2)C(C(=O)OC(C)(C)C)=C(C)N1 [Example 23, Di-tert-butyl 4-(4-chlorophenyl)-1,4-dihydro-2,6-dimethylpyridine-3,5-dicarboxylate]
Second: CC1=C(C(=O)OC(C)(C)C)C(c2ccc(F)cc2)C(C(=O)OC(C)(C)C)=C(C)N1 [Example 52, Di-tert-butyl 4-(4-fluorophenyl)-1,4-dihydro-2,6-dimethylpyridine-3,5-dicarboxylate]
The melting point of the first is higher: 191.5 to 192.5 °C for the first, 149 to 150 °C for the second.

First: C=CCOC(=O)C1=C(C)NC(C)=C(C(=O)OCC=C)C1c1ccccc1Cl [Example 16, Diallyl 4-(2-chlorophenyl)-1,4-dihydro-2,6-dimethylpyridine-3,5-dicarboxylate]
Second: C=CCOC(=O)C1=C(C)NC(C)=C(C(=O)OCC=C)C1c1ccc(Br)cc1 [Example 40, Diallyl 4-(4-bromophenyl)-1,4-dihydro-2,6-dimethylpyridine-3,5-dicarboxylate]
The melting point of the first is lower: 98 to 99 °C for the first, 130 to 131 °C for the second.

Compared with `CCOC(=O)C1=C(C)NC(C)=C(C(=O)OCC)C1c1ccccc1I` [Example 18, Diethyl 1,4-dihydro-4-(2-iodophenyl)-2,6-dimethylpyridine-3,5-dicarboxylate], `CCOC(=O)C1=C(C)NC(C)=C(C(=O)OCC)C1c1ccccc1Cl` [Example 6, Diethyl 4-(2-chlorophenyl)-1,4-dihydro-2,6-dimethylpyridine-3,5-dicarboxylate] is lower in melting point: 173 to 174.5 °C for the first, 120 to 121 °C for the second.

Compared with `COC(=O)C1=C(C)NC(C)=C(C(=O)OC)C1c1ccccc1Br` [Example 19, Dimethyl 4-(2-bromophenyl)-1,4-dihydro-2,6-dimethylpyridine-3,5-dicarboxylate], `CCOC(=O)C1=C(C)NC(C)=C(C(=O)OCC)C1c1ccccc1Br` [Example 11, Diethyl 4-(2-bromophenyl)-1,4-dihydro-2,6-dimethylpyridine-3,5-dicarboxylate] is lower in melting point: 164 to 165 °C for the first, 144 to 145 °C for the second.

First: CCOC(=O)C1=C(C)NC(C)=C(C(=O)OCC)C1c1cc(Cl)ccc1Cl [Example 34, Diethyl 4-(2,5-dichlorophenyl)-1,4-dihydro-2,6-dimethylpyridine-3,5-dicarboxylate]
Second: CCOC(=O)C1=C(C)NC(C)=C(C(=O)OCC)C1c1cccc(Cl)c1Cl [Example 31, Diethyl 4-(2,3-dichlorophenyl)-1,4-dihydro-2,6-dimethylpyridine-3,5-dicarboxylate]
The melting point of the first is higher: 166.5 to 167.5 °C for the first, 125 to 126 °C for the second.

Compared with `CC1=C(C(=O)OC(C)(C)C)C(c2ccc(C)cc2C)C(C(=O)OC(C)(C)C)=C(C)N1` [Example 55, Di-tert-butyl 1,4-dihydro-2,6-dimethyl-4-(2,4-dimethylphenyl)pyridine-3,5-dicarboxylate], `CC1=C(C(=O)OC(C)(C)C)C(c2cccc(Cl)c2Cl)C(C(=O)OC(C)(C)C)=C(C)N1` [Example 32, Di-tert-butyl 4-(2,3-dichlorophenyl)-1,4-dihydro-2,6-dimethylpyridine-3,5-dicarboxylate] is lower in melting point: 197 to 198 °C for the first, 144 to 145 °C for the second.

First: CCOC(=O)C1=C(C)NC(C)=C(C(=O)OCC)C1c1cc(Cl)cc(Cl)c1 [Example 37, Diethyl 4-(3,5-dichlorophenyl)-1,4-dihydro-2,6-dimethylpyridine-3,5-dicarboxylate]
Second: CCOC(=O)C1=C(C)NC(C)=C(C(=O)OCC)C1c1ccc(Cl)cc1 [Example 22, Diethyl 4-(4-chlorophenyl)-1,4-dihydro-2,6-dimethylpyridine-3,5-dicarboxylate]
The melting point of the first is lower: 102 to 104 °C for the first, 151 to 152 °C for the second.

Compared with `CCOC(=O)C1=C(C)NC(C)=C(C(=O)OCC)C1c1ccc(F)cc1` [Example 51, Diethyl 4-(4-fluorophenyl)-1,4-dihydro-2,6-dimethylpyridine-3,5-dicarboxylate], `CCOC(=O)C1=C(C)NC(C)=C(C(=O)OCC)C1c1cccc(Br)c1` [Example 24, Diethyl 4-(3-bromophenyl)-1,4-dihydro-2,6-dimethylpyridine-3,5-dicarboxylate] is lower in melting point: 150 to 151 °C for the first, 125 to 126 °C for the second.

First: CC(=O)C1=C(C)NC(C)=C(C(C)=O)C1c1ccccc1Cl [Example 7, 4-(2-Chlorophenyl)-1,4-dihydro-2,6-dimethylpyridine-3,5-di(2-ethanone)]
Second: COC(=O)C1=C(C)NC(C)=C(C(C)=O)C1c1ccccc1Cl (stereo not drawn) [Example 57, Methyl 5-acetyl-4-(2-chlorophenyl)-1,4-dihydro-2,6-dimethylpyridine-3-carboxylate]
The melting point of the first is higher: 196 to 197 °C for the first, 183 to 184 °C for the second.

First: CC1=C(C(=O)OC(C)(C)C)C(c2cccc(Cl)c2)C(C(=O)OC(C)(C)C)=C(C)N1 [Example 21, Di-tert-butyl 4-(3-chlorophenyl)-1,4-dihydro-2,6-dimethylpyridine-3,5-dicarboxylate]
Second: CC1=C(C(=O)OC(C)(C)C)C(c2cc(Cl)ccc2Cl)C(C(=O)OC(C)(C)C)=C(C)N1 [Example 35, Di-tert-butyl 4-(2,5-dichlorophenyl)-1,4-dihydro-2,6-dimethylpyridine-3,5-dicarboxylate]
The melting point of the first is higher: 189.5 to 190.5 °C for the first, 181 to 183 °C for the second.

Compared with `COCCOC(=O)C1=C(C)NC(C)=C(C(=O)OCCOC)C1c1ccc(Br)cc1` [Example 46, Bis(2-methoxyethyl) 4-(4-bromophenyl)-1,4-dihydro-2,6-dimethylpyridine-3,5-dicarboxylate], `COCCOC(=O)C1=C(C)NC(C)=C(C(=O)OCCOC)C1c1ccccc1Cl` [Example 10, Bis(2-methoxyethyl) 4-(2-chlorophenyl)-1,4-dihydro-2,6-dimethylpyridine-3,5-dicarboxylate] is higher in melting point: 116 to 117 °C for the first, 120 to 121 °C for the second.

First: CC1=C(C(=O)OC(C)(C)C)C(c2ccccc2Cl)C(C(=O)OC(C)(C)C)=C(C)N1 [Example 9, Di-tert-butyl 4-(2-chlorophenyl)-1,4-dihydro-2,6-dimethylpyridine-3,5-dicarboxylate]
Second: CC1=C(C(=O)OC(C)(C)C)C(c2ccccc2I)C(C(=O)OC(C)(C)C)=C(C)N1 [Example 28, Di-tert-butyl 1,4-dihydro-4-(2-iodophenyl)-2.6-dimethylpyridine-3,5-dicarboxylate]
The melting point of the first is higher: 194 to 196 °C for the first, 184 to 185 °C for the second.

First: COCC1=C(C(=O)OC)C(c2ccc(Br)cc2)C(C(=O)OC)=C(COC)N1 [Example 53, Dimethyl 4-(4-bromophenyl)-1,4-dihydro-2,6-bis(methoxymethyl)pyridine-3,5-dicarboxylate]
Second: CC1=C(C(=O)OC(C)(C)C)C(c2ccc(Br)cc2)C(C(=O)OC(C)(C)C)=C(C)N1 [Example 27, Di-tert-butyl 4-(4-bromophenyl)-1,4-dihydro-2.6-dimethylpyridine-3,5-dicarboxylate]
The melting point of the first is lower: 162 to 163 °C for the first, 206 to 207 °C for the second.

First: CCOC(=O)C1=C(C)NC(C)=C(C(=O)OCC)C1c1cc(Br)ccc1F [Example 47, Diethyl 4-(5-bromo-2-fluorophenyl)-1,4-dihydro-2,6-dimethylpyridine-3,5-dicarboxylate]
Second: CCOC(=O)C1=C(C)NC(C)=C(C(=O)OCC)C1c1c(Cl)cccc1Cl [Example 36, Diethyl 4-(2,6-dichlorophenyl)-1,4-dihydro-2,6-dimethylpyridine-3,5-dicarboxylate]
The melting point of the first is lower: 118 to 119 °C for the first, 134 to 135 °C for the second.

First: CCOC(=O)C1=C(C)NC(C)=C(C(=O)OC)C1c1ccccc1Cl (stereo not drawn) [Example 56, 3-Ethyl 5-methyl 4-(2-chlorophenyl)-1,4-dihydro-2,6-dimethylpyridine-3,5-dicarboxylate]
Second: CC1=C(C(=O)OC(C)(C)C)C(c2cc(Br)ccc2F)C(C(=O)OC(C)(C)C)=C(C)N1 [Example 48, Di-tert-butyl 4-(5-bromo-2-fluorophenyl)-1,4-dihydro-2,6-dimethylpyridine-3,5-dicarboxylate]
The melting point of the first is lower: 125 to 127 °C for the first, 173 to 174 °C for the second.

For `CCOC(=O)C1=C(C)N(Cc2ccccc2)C(C)=C(C(=O)OCC)C1c1ccc(Br)cc1` [Example 54, Diethyl 1-benzyl-4-(4-bromophenyl)-1,4-dihydro-2,6-dimethylpyridine-3,5-dicarboxylate], the melting point was 168 to 169 °C.

tested on: β-amyloid production by 7W WT APP751 CHO cells; assay: Measurement of Aβ1-40 and Aβ1-42 by ELISA in culture medium (Example 1, calcium channel blockers); assay type: cell-based, Chinese hamster; conditions: 15 μM, 24 hours (FIG. 1B)
Experimental: Chinese hamster ovary (CHO) cells, stably transfected with human APP751 (7W WT APP751 CHO cells) were used. See, e.g., Koo and Squazzo, J. Biol. Chem., Vol. 269, Issue 26, 17386-17389, July, 1994. The cells were maintained in DMEM medium supplemented with 10% fetal bovine serum and 1× mixture of penicillin/streptomycin/fungizone/glutamine mixture (Cambrex, MD) geneticin as selecting agent in 75 cm^2 cell culture flasks.
The 7W WT APP751 CHO cells were plated in 24-well cell culture plates in quadruplicate, containing 1 ml of culture medium, and treated with various calcium channel blocker compounds for 4 hours, 24 hours or 48 hours at 37° C. and 5% CO2. All test compounds were diluted in dimethyl sulfoxide (DMSO) before being added to the cultured confluent 7W WT APP751 CHO cells. The culture medium was collected and diluted 5-fold for the 4 hours assay and 50-fold for the 24 hour assay before being assayed by ELISAs for Aβ1-40 and Aβ1-42, respectively. Concentrations of Aβ1-40 and Aβ1-42, expressed in pg/ml, were determined using commercially available ELISAs (Biosource, CA) in a colorimetric assay using labeled antibodies detected spectrophotometrically.
G-sec Inhib XIX, SKF 96365, 2-APB, felodipine, FPL, clotrimazole, tetrandrine, R24571, and econazole are available, as Calbiochem products from EMD Biosciences, Inc., La Jolla, Calif.; nilvadipine, nitrendipine and amlodipine (amlodipine besylate) are available, e.g., from Fujisawa, Osaka, Japan; thapsigargin, BAPTA-AM and TA9 (Tyrphostin A9) are available, e.g., as a Sigma product from Sigma-Aldrich Corp., St. Louis, Mo.; and felodipine, diltiazem, S(−)Bay K8644, R(+)Bay K8644, MRS 1845, SR 33805, loperamide, and isradipine are available from Tocris Cookson Inc., Ellisville, Mo.

For `COc1ccc(CCCOC(Cn2ccnc2)c2ccc(OC)cc2)cc1.Cl` (stereo not drawn) [SKF 96365, 1-[beta-[3-(4-methoxyphenyl)propoxy]-4-methoxyphenethyl]-1H-imidazole hydrochloride], the “concentration of Aβ1-40 compared to controls” value was “significantly decreased”.

same assay, conditions: 30 μM (FIG. 2)

With `COc1ccc(CCCOC(Cn2ccnc2)c2ccc(OC)cc2)cc1.Cl` (stereo not drawn) [SKF 96365, 1-[beta-[3-(4-methoxyphenyl)propoxy]-4-methoxyphenethyl]-1H-imidazole hydrochloride] the “concentration of Aβ1-40 compared to controls” value was “significantly decreased”.

With `COc1ccc(CCCOC(Cn2ccnc2)c2ccc(OC)cc2)cc1.Cl` (stereo not drawn) [SKF 96365, 1-[beta-[3-(4-methoxyphenyl)propoxy]-4-methoxyphenethyl]-1H-imidazole hydrochloride] the “concentration of Aβ1-42 compared to controls” value was “significantly decreased”.

In the case of `COc1ccc(CCCOC(Cn2ccnc2)c2ccc(OC)cc2)cc1.Cl` (stereo not drawn) [SKF 96365, 1-[beta-[3-(4-methoxyphenyl)propoxy]-4-methoxyphenethyl]-1H-imidazole hydrochloride], the “concentration of total β-amyloid compared to controls” value is reported as “significantly decreased”.

same assay, conditions: 30 μM, 24 hours (FIG. 1B)

With `COc1ccc(CCCOC(Cn2ccnc2)c2ccc(OC)cc2)cc1.Cl` (stereo not drawn) [SKF 96365, 1-[beta-[3-(4-methoxyphenyl)propoxy]-4-methoxyphenethyl]-1H-imidazole hydrochloride] the “concentration of Aβ1-40 compared to controls” value was “significantly decreased”.
